In a compilation of properties of binary mixtures (doi:10.1016/j.jiec.2013.02.010):

Assay: xn = mol fraction of the nth substance listed
Conditions: 101 kPa

CCCC[n+]1ccn(C)c1.[Cl-] + CC#N
viscosity (293.15 K, x2 = 0.5028): 111 mPa·s | viscosity (293.15 K, x2 = 0.5548): 60.5 mPa·s | viscosity (293.15 K, x2 = 0.6007): 38.5 mPa·s | viscosity (293.15 K, x2 = 0.7003): 11.9 mPa·s | viscosity (293.15 K, x2 = 0.8): 3.9 mPa·s | viscosity (293.15 K, x2 = 0.9002): 1.17 mPa·s | viscosity (293.15 K, x2 = 0.9499): 0.69 mPa·s | electrical conductivity (298.15 K, x2 = 0.502): 0.29 S/m | viscosity (298.15 K, x2 = 0.502): 76 mPa·s | electrical conductivity (298.15 K, x2 = 0.5483): 0.4 S/m | viscosity (298.15 K, x2 = 0.5483): 53.6 mPa·s | electrical conductivity (298.15 K, x2 = 0.6038): 0.578 S/m | viscosity (298.15 K, x2 = 0.6038): 28.4 mPa·s | electrical conductivity (298.15 K, x2 = 0.7021): 1.03 S/m | viscosity (298.15 K, x2 = 0.7021): 10 mPa·s | electrical conductivity (298.15 K, x2 = 0.9002): 1.9 S/m | viscosity (298.15 K, x2 = 0.9002): 1.12 mPa·s | electrical conductivity (298.15 K, x2 = 0.9499): 1.7 S/m | viscosity (298.15 K, x2 = 0.9499): 0.63 mPa·s | electrical conductivity (298.15 K, x2 = 0.975): 1.3 S/m | viscosity (298.15 K, x2 = 0.975): 0.46 mPa·s | viscosity (303.15 K, x2 = 0.5065): 63.1 mPa·s | viscosity (303.15 K, x2 = 0.5524): 40.2 mPa·s | viscosity (303.15 K, x2 = 0.6025): 25.5 mPa·s | viscosity (303.15 K, x2 = 0.7003): 9.3 mPa·s | viscosity (303.15 K, x2 = 0.8007): 3.4 mPa·s | viscosity (303.15 K, x2 = 0.9002): 1.06 mPa·s | viscosity (303.15 K, x2 = 0.9499): 0.57 mPa·s | viscosity (308.15 K, x2 = 0.5028): 55.4 mPa·s | viscosity (308.15 K, x2 = 0.5548): 33.3 mPa·s | viscosity (308.15 K, x2 = 0.6007): 22 mPa·s | viscosity (308.15 K, x2 = 0.7003): 8.5 mPa·s | viscosity (308.15 K, x2 = 0.8): 3.04 mPa·s | viscosity (308.15 K, x2 = 0.9002): 1.02 mPa·s | viscosity (308.15 K, x2 = 0.9499): 0.53 mPa·s

CC#N + CCCC[n+]1ccn(C)c1.[Cl-]
viscosity (293.15 K, x1 = 1): 0.36 mPa·s | viscosity (298.15 K, x1 = 1): 0.35 mPa·s | viscosity (303.15 K, x1 = 1): 0.32 mPa·s

CCO + CCCC[n+]1ccn(C)c1.[Cl-]
viscosity (293.15 K, x1 = 1): 1.19 mPa·s | viscosity (298.15 K, x1 = 1): 1.08 mPa·s | viscosity (308.15 K, x1 = 1): 0.89 mPa·s

CN(C)C=O + CCCC[n+]1ccn(C)c1.[Cl-]
viscosity (293.15 K, x1 = 1): 0.86 mPa·s | viscosity (298.15 K, x1 = 1): 0.8 mPa·s | viscosity (303.15 K, x1 = 1): 0.78 mPa·s | viscosity (308.15 K, x1 = 1): 0.73 mPa·s

CO + CCCC[n+]1ccn(C)c1.[Cl-]
viscosity (293.15 K, x1 = 1): 0.61 mPa·s | viscosity (298.15 K, x1 = 1): 0.55 mPa·s | viscosity (303.15 K, x1 = 1): 0.51 mPa·s

O + CCCC[n+]1ccn(C)c1.[Cl-]
viscosity (293.15 K, x1 = 1): 1.01 mPa·s | viscosity (298.15 K, x1 = 1): 0.89 mPa·s | viscosity (303.15 K, x1 = 1): 0.8 mPa·s | viscosity (308.15 K, x1 = 1): 0.72 mPa·s

CCCC[n+]1ccn(C)c1.[Cl-] + CCO
viscosity (293.15 K, x2 = 0.4991): 75 mPa·s | viscosity (293.15 K, x2 = 0.5533): 47.9 mPa·s | viscosity (293.15 K, x2 = 0.6011): 30.6 mPa·s | viscosity (293.15 K, x2 = 0.7003): 12.1 mPa·s | viscosity (293.15 K, x2 = 0.8002): 5.23 mPa·s | viscosity (293.15 K, x2 = 0.9): 2.46 mPa·s | electrical conductivity (298.15 K, x2 = 0.4991): 0.326 S/m | viscosity (298.15 K, x2 = 0.4991): 61.4 mPa·s | electrical conductivity (298.15 K, x2 = 0.5533): 0.483 S/m | viscosity (298.15 K, x2 = 0.5533): 37.5 mPa·s | electrical conductivity (298.15 K, x2 = 0.6011): 0.648 S/m | viscosity (298.15 K, x2 = 0.6011): 23.8 mPa·s | electrical conductivity (298.15 K, x2 = 0.9): 1.38 S/m | viscosity (298.15 K, x2 = 0.9): 2.24 mPa·s | electrical conductivity (298.15 K, x2 = 0.9501): 0.927 S/m | viscosity (298.15 K, x2 = 0.9501): 1.62 mPa·s | electrical conductivity (298.15 K, x2 = 0.975): 0.52 S/m | viscosity (298.15 K, x2 = 0.975): 1.29 mPa·s | viscosity (303.15 K, x2 = 0.5533): 31.1 mPa·s | viscosity (303.15 K, x2 = 0.7003): 9.2 mPa·s | viscosity (303.15 K, x2 = 0.8002): 4.25 mPa·s | viscosity (303.15 K, x2 = 0.9): 2.06 mPa·s | viscosity (308.15 K, x2 = 0.4991): 38.3 mPa·s | viscosity (308.15 K, x2 = 0.5533): 25.6 mPa·s | viscosity (308.15 K, x2 = 0.6011): 17 mPa·s | viscosity (308.15 K, x2 = 0.7003): 8.2 mPa·s | viscosity (308.15 K, x2 = 0.8002): 3.84 mPa·s | viscosity (308.15 K, x2 = 0.9): 1.92 mPa·s | viscosity (308.15 K, x2 = 0.9501): 1.35 mPa·s

CCCC[n+]1ccn(C)c1.[Cl-] + CN(C)C=O
viscosity (293.15 K, x2 = 0.5025): 77 mPa·s | viscosity (293.15 K, x2 = 0.5565): 49.1 mPa·s | viscosity (293.15 K, x2 = 0.6003): 33.9 mPa·s | viscosity (293.15 K, x2 = 0.6996): 16.9 mPa·s | viscosity (293.15 K, x2 = 0.8014): 5.1 mPa·s | viscosity (293.15 K, x2 = 0.95): 1.32 mPa·s | electrical conductivity (298.15 K, x2 = 0.501): 0.218 S/m | viscosity (298.15 K, x2 = 0.501): 64 mPa·s | electrical conductivity (298.15 K, x2 = 0.6134): 0.439 S/m | viscosity (298.15 K, x2 = 0.6134): 24 mPa·s | electrical conductivity (298.15 K, x2 = 0.6994): 0.592 S/m | viscosity (298.15 K, x2 = 0.6994): 11.4 mPa·s | electrical conductivity (298.15 K, x2 = 0.8017): 0.857 S/m | viscosity (298.15 K, x2 = 0.8017): 4.44 mPa·s | electrical conductivity (298.15 K, x2 = 0.9): 0.922 S/m | viscosity (298.15 K, x2 = 0.9): 1.88 mPa·s | electrical conductivity (298.15 K, x2 = 0.9502): 0.766 S/m | viscosity (298.15 K, x2 = 0.9502): 1.21 mPa·s | viscosity (303.15 K, x2 = 0.552): 34.5 mPa·s | viscosity (303.15 K, x2 = 0.7005): 9.5 mPa·s | viscosity (303.15 K, x2 = 0.9): 1.73 mPa·s | viscosity (308.15 K, x2 = 0.5007): 39.9 mPa·s | viscosity (308.15 K, x2 = 0.5564): 25.5 mPa·s | viscosity (308.15 K, x2 = 0.6001): 17.5 mPa·s | viscosity (308.15 K, x2 = 0.7): 7.8 mPa·s | viscosity (308.15 K, x2 = 0.95): 1.04 mPa·s

CCCC[n+]1ccn(C)c1.[Cl-] + CO
viscosity (293.15 K, x2 = 0.6026): 23.2 mPa·s | viscosity (293.15 K, x2 = 0.7002): 8.4 mPa·s | viscosity (293.15 K, x2 = 0.8008): 3.41 mPa·s | viscosity (293.15 K, x2 = 0.8999): 1.63 mPa·s | viscosity (293.15 K, x2 = 0.95): 0.95 mPa·s | electrical conductivity (298.15 K, x2 = 0.5213): 0.632 S/m | viscosity (298.15 K, x2 = 0.5213): 37.6 mPa·s | electrical conductivity (298.15 K, x2 = 0.5458): 0.777 S/m | viscosity (298.15 K, x2 = 0.5458): 32.5 mPa·s | electrical conductivity (298.15 K, x2 = 0.5925): 1.08 S/m | viscosity (298.15 K, x2 = 0.5925): 20.4 mPa·s | electrical conductivity (298.15 K, x2 = 0.7996): 3.46 S/m | viscosity (298.15 K, x2 = 0.7996): 3.25 mPa·s | electrical conductivity (298.15 K, x2 = 0.9007): 4.08 S/m | viscosity (298.15 K, x2 = 0.9007): 1.38 mPa·s | electrical conductivity (298.15 K, x2 = 0.95): 3.32 S/m | viscosity (298.15 K, x2 = 0.95): 0.88 mPa·s | electrical conductivity (298.15 K, x2 = 0.975): 2.24 S/m | viscosity (298.15 K, x2 = 0.975): 0.68 mPa·s | viscosity (303.15 K, x2 = 0.5173): 36.4 mPa·s | viscosity (303.15 K, x2 = 0.6044): 16 mPa·s | viscosity (303.15 K, x2 = 0.7993): 2.86 mPa·s | viscosity (303.15 K, x2 = 0.8999): 1.25 mPa·s | viscosity (303.15 K, x2 = 0.95): 0.85 mPa·s | viscosity (308.15 K, x2 = 0.5001): 34.5 mPa·s | viscosity (308.15 K, x2 = 0.5458): 23.7 mPa·s | viscosity (308.15 K, x2 = 0.6026): 14.9 mPa·s | viscosity (308.15 K, x2 = 0.7001): 6.6 mPa·s | viscosity (308.15 K, x2 = 0.8008): 2.76 mPa·s

CCCC[n+]1ccn(C)c1.[Cl-] + O
viscosity (293.15 K, x2 = 0.5535): 141 mPa·s | viscosity (293.15 K, x2 = 0.6132): 86 mPa·s | viscosity (293.15 K, x2 = 0.7033): 39.4 mPa·s | viscosity (293.15 K, x2 = 0.8034): 15.5 mPa·s | viscosity (293.15 K, x2 = 0.8999): 5.3 mPa·s | electrical conductivity (298.15 K, x2 = 0.4982): 0.32 S/m | viscosity (298.15 K, x2 = 0.4982): 163 mPa·s | electrical conductivity (298.15 K, x2 = 0.5535): 0.502 S/m | viscosity (298.15 K, x2 = 0.5535): 105 mPa·s | electrical conductivity (298.15 K, x2 = 0.6132): 0.844 S/m | viscosity (298.15 K, x2 = 0.6132): 64.5 mPa·s | electrical conductivity (298.15 K, x2 = 0.7033): 1.54 S/m | viscosity (298.15 K, x2 = 0.7033): 30.4 mPa·s | electrical conductivity (298.15 K, x2 = 0.8999): 5.31 S/m | viscosity (298.15 K, x2 = 0.8999): 4.38 mPa·s | electrical conductivity (298.15 K, x2 = 0.9502): 5.98 S/m | viscosity (298.15 K, x2 = 0.9502): 2.22 mPa·s | electrical conductivity (298.15 K, x2 = 0.975): 4.98 S/m | viscosity (298.15 K, x2 = 0.975): 1.52 mPa·s | viscosity (303.15 K, x2 = 0.4982): 118 mPa·s | viscosity (303.15 K, x2 = 0.5535): 83 mPa·s | viscosity (303.15 K, x2 = 0.6132): 50.4 mPa·s | viscosity (303.15 K, x2 = 0.7033): 24.5 mPa·s | viscosity (303.15 K, x2 = 0.8034): 10.5 mPa·s | viscosity (303.15 K, x2 = 0.9502): 1.94 mPa·s | viscosity (308.15 K, x2 = 0.5535): 61.6 mPa·s | viscosity (308.15 K, x2 = 0.6132): 38.7 mPa·s | viscosity (308.15 K, x2 = 0.7033): 20 mPa·s | viscosity (308.15 K, x2 = 0.8034): 8.69 mPa·s | viscosity (308.15 K, x2 = 0.8999): 3.3 mPa·s | viscosity (308.15 K, x2 = 0.9502): 1.74 mPa·s
